Data as given in US20260165323A1, “USE OF STROBILURIN TYPE COMPOUNDS FOR COMBATING PHYTOPATHOGENIC FUNGI CONTAINING AN AMINO ACID SUBSTITUTION F129L IN THE MITOCHONDRIAL CYTOCHROME B PROTEIN CONFERRING RESISTANCE TO QO […]” (priority 2022, published 2026).

Tests used:
[1] = test system: Drechslera teres (PYRNTE) containing the amino acid substitution F129L in the mitochondrial cytochrome b protein; test: Use example 10: microtest, growth of Drechslera teres (PYRNTE) F129L; assay type: cell-based; conditions: relative growth vs compound-free control (100%), 7 days; for Growth (%) PYRNTE F129L Use ex. 10: 125 ppm
Procedure: (§1) The active compounds were formulated separately as a stock solution having a concentration of 10000 ppm in dimethyl sulfoxide. The stock solutions were mixed according to the ratio, pipetted onto a micro titer plate (MTP) and diluted with water to the stated concentrations. A spore suspension of one of the following fungal plant pathogens in aqueous bio malt solution • was then added for the respective use example: • Use example 5: Alternaria solani (ALTESO) • Use example 6: Botrytis cinerea (BOTRCI) • Use example 7: Cercospora sojina (CERCSO) • Use example 8: Colletotrichum orbiculare (COLLLA) • Use example 9: Leptosphaeria nodorum (LEPTNO) • Use example 10: Drechslera teres (PYRNTE) containing the amino acid substitution F129L in the mitochondrial cytochrome b protein conferring resistance to Qo inhibitors • Use example 11: Sclerotinia sclerotiorum (SCLESC), solute with ultrasonic from a filter membrane
(§2) The plates were placed in a water vapor-saturated chamber at a temperature of 18° C. Using an absorption photometer, the MTPs were measured at 405 nm 7 days after the inoculation.
(§3) The measured parameters were compared to the growth of the active compound-free control variant (100%) and the fungus-free blank value to determine the relative growth in % of the pathogens in the respective active compounds.

[2] = test system: Leptosphaeria nodorum (LEPTNO); test: Use example 9: microtest, growth of Leptosphaeria nodorum (LEPTNO); assay type: cell-based; conditions: relative growth vs compound-free control (100%), 7 days, Table 10
Procedure: as §1, §2, §3

[3] = test system: Cercospora sojina (CERCSO); test: Use example 7: microtest, growth of Cercospora sojina (CERCSO); assay type: cell-based; conditions: relative growth vs compound-free control (100%); for Growth (%) CERCSO Use ex. 7: 125 ppm, 7 days, Table 12; for Growth at 31 ppm (%) CERCSO Use ex. 7: 7 days after inoculation
Procedure: as §1, §2, §3

[4] = test system: Colletotrichum orbiculare (COLLLA); test: Use example 8: microtest, growth of Colletotrichum orbiculare (COLLLA); assay type: cell-based; conditions: relative growth vs compound-free control (100%); for Growth at 2 ppm (%) COLLLA Use ex. 8: 7 days after inoculation
Procedure: as §1, §2, §3

[5] = test system: Puccinia recondita; test: Use Example 4: preventative control of brown rust on wheat (PUCCRT P7); assay type: in vivo; conditions: inoculated seven days after spraying, % diseased leaf area
How it was run: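 First two leaves of potted wheat seedlings sprayed to run-off with compound in acetone/DMSO–emulsifier–water, then inoculated with Puccinia recondita spores seven days later. Plants held 24 h dark at 95–99% RH and 20–24 °C, then 9–11 days in greenhouse; diseased leaf area (%) scored visually.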

[6] = test system: Puccinia recondita; test: Use Example 3: curative control of brown rust on wheat (PUCCRT K4); assay type: in vivo; conditions: % diseased leaf area
How it was run: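 Wheat seedlings inoculated with Puccinia recondita spores, held 24 h at 95–99% RH, 20–24° C in dark, then 3 days in greenhouse before spraying to run-off (curative). Compound in acetone/DMSO–Wettol–water. After 5–7 further days at 20–24° C, 65–70% RH, % diseased leaf area scored visually.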

[7] = test system: Phakopsora pachyrhizi containing the amino acid substitution F129L in the mitochondrial cytochrome b protein; test: Use Example 2: protective control of soybean rust on soybeans (PHAKPA P6); assay type: in vivo; conditions: inoculated six days after spraying, % diseased leaf area
How it was run: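 Compound in acetone and/or DMSO with Wettol (99:1), diluted with water, was sprayed to run-off on potted soybean seedlings. After six days at 23–27°C and 60–80% RH, plants were inoculated with a Qo-resistant F129L strain and held 24 h at about 95% RH. Percent diseased leaf area was scored visually after up to 14 days.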

[8] = test system: Phakopsora pachyrhizi containing the amino acid substitution F129L in the mitochondrial cytochrome b protein; test: Use Example 1: protective control of soybean rust on soybeans (PHAKPA P2); assay type: in vivo; conditions: inoculated 2 days after spraying, % diseased leaf area
How it was run: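 Soybean seedling leaves sprayed to run-off with compound in acetone/DMSO–Wettol–water at the stated concentration, kept 2 days at 23-27° C, then inoculated with Qo-inhibitor-resistant F129L P. pachyrhizi. After 24 h at ~95% RH, 20-24° C, and up to 14 days in greenhouse, % diseased leaf area scored visually.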

Compound	% PUCCRT Disease level P7 at 4 ppm [5] [%]	% PUCCRT Disease level P7 at 16 ppm [5] [%]	% PUCCRT Disease level K4 at 4 ppm [6] [%]	% PUCCRT Disease level K4 at 16 ppm [6] [%]	% PHAKPA (F129L) Disease level P6 at 4 ppm [7] [%]	% PHAKPA (F129L) Disease level P6 at 16 ppm [7] [%]	% PHAKPA (F129L) Disease level P2 at 4 ppm [8] [%]	% PHAKPA (F129L) Disease level P2 at 16 ppm [8] [%]	also measured
CO/C=C(/C(=O)OC)c1cccc(C)c1CO/N=C(\COC)c1cccc(F)c1 [1.2-A-75, reference compound]									Growth at 8 ppm (%) PYRNTE F129L Use ex. 10 [1]: 34%
COC/C(=N\OCc1c(C)cccc1/C(=N\OC)C(=O)OC)c1ccc(F)cc1 [I.2-A-82, reference compound]									Growth at 125 ppm (%) LEPTNO Use ex. 9 [2]: 19%
CNC(=O)/C(=N/OC)c1cccc(C)c1CO/N=C(\COC)c1ccc(Cl)cc1 [I.3-A-83, reference compound]									Growth (%) CERCSO Use ex. 7 [3]: 89%; Growth (%) PYRNTE F129L Use ex. 10 ([1]; Table 12): 26%
CNC(=O)/C(=N/OC)c1cccc(C)c1CO/N=C(\COC)c1c(F)cc(F)cc1F [I.3-A-43860, reference compound]									Growth (%) PYRNTE F129L Use ex. 10 ([1]; Table 13): 36%; Growth (%) COLLLA Use ex. 8 ([4]; 8 ppm, 7 days): 62%
CNC(=O)/C(=N/OC)c1cccc(Cl)c1CO/N=C(\COC)c1ccccc1 [compound 4, (2E)-2-[3-chloro-2-[[(Z)-(2-methoxy-1-phenyl-ethylidene)amino]oxymethyl]phenyl]-2-methoxyimino-N-methyl-acetamide]	17	4	77	9					Growth at 2 ppm (%) COLLLA Use ex. 8 [4]: 29%
CO/C=C(/C(=O)OC)c1cccc(Br)c1CO/N=C(\COC)c1ccc(F)cc1 [compound 10, Methyl-(E)-2-[3-bromo-2-[[(Z)-[1-(4-fluorophenyl)-2-methoxy-ethylidene]amino]oxymethyl]phenyl]-3-methoxy-prop-2-enoate]	10	2	13	2	8	0	4	0	Growth at 125 ppm (%) LEPTNO Use ex. 9 [2]: 3%
CO/C=C(/C(=O)OC)c1cccc(Cl)c1CO/N=C(\COC)c1c(F)cc(F)cc1F [compound 12, Methyl-(E)-2-[3-chloro-2-[[(Z)-[2-methoxy-1-(2,4,6-trifluorophenyl)ethylidene]amino]oxymethyl]phenyl]-3-methoxy-prop-2-enoate]	17	9	23	18	4	0	2	0	Growth (%) COLLLA Use Ex. 8 ([4]; 125 ppm, 7 days): 20%
CO/C=C(/C(=O)OC)c1cccc(Cl)c1CO/N=C(\COC)c1cccc(F)c1 [compound 14, Methyl-(E)-2-[3-chloro-2-[[(Z)-[1-(3-fluorophenyl)-2-methoxy-ethylidene]amino]oxymethyl]phenyl]-3-methoxy-prop-2-enoate]	13	2	22	1	2	0	3	0	Growth at 8 ppm (%) PYRNTE F129L Use ex. 10 [1]: 3%
CO/C=C(/C(=O)OC)c1cccc(F)c1CO/N=C(\COC)c1ccc(F)cc1 [compound 17]	37	8	53	6	17	2	8	0	Growth at 125 ppm (%) LEPTNO Use ex. 9 [2]: 0%
CNC(=O)/C(=N/OC)c1cccc(Cl)c1CO/N=C(\COC)c1ccc(Cl)cc1 [compound 36]	6	0	82	2	57	10	65	3	Growth (%) CERCSO Use ex. 7 [3]: 12%; Growth (%) PYRNTE F129L Use ex. 10 ([1]; Table 12): 2%
COC/C(=N\OCc1c(Cl)cccc1/C(=N\OC)C(=O)OC)c1cccc(Cl)c1 [compound 37]	40	5	75	72	72	39	67	18	Growth at 31 ppm (%) CERCSO Use ex. 7 [3]: 40%
CO/C=C(/C(=O)OC)c1cccc(Cl)c1CO/N=C(\COC)c1ccccn1 [compound 129, Methyl (E)-2-[3-chloro-2-[[(Z)-[2-methoxy-1-(2-pyridyl)ethylidene]amino]oxymethyl]phenyl]-3-methoxy-prop-2-enoate]		18	11	1	4	1	1	0	
CO/C=C(/C(=O)OC)c1cccc(Cl)c1CO/N=C(\COC)c1ccc(F)cn1 [compound 131, Methyl (E)-2-[3-chloro-2-[[(Z)-[1-(5-fluoro-2-pyridyl)-2-methoxy-ethylidene]amino]oxymethyl]phenyl]-3-methoxy-prop-2-enoate]	32	1	2	0	1	0	1	0	
CNC(=O)/C(=N/OC)c1cccc(C)c1CO/N=C(\COC)c1ccccc1 [reference compound]									Growth at 2 ppm (%) COLLLA Use ex. 8 [4]: 44%
COC/C(=N\OCc1c(C)cccc1/C(=N\OC)C(=O)OC)c1cccc(Cl)c1 [reference compound]									Growth at 31 ppm (%) CERCSO Use ex. 7 [3]: 60%
